Read-outs that look alike come from different tables or passages of the source.
Tests used:
β2 -adrenergic receptors = conditions: read-out: KD for [125I]-ICYP binding to β2-adrenergic receptors; cited from earlier work
β3 -adrenergic receptor = conditions: read-out: KD reported for [125I]-ICYP binding to the β3-adrenergic receptor; Emorine et al.; cited from earlier work
β1 -adrenergic receptors = conditions: read-out: KD for [125I]-ICYP binding to β1-adrenergic receptors; cited from earlier work
brown adipocytes = conditions: Arch et al., read-out: EC50 for increases in lipolysis; cited from earlier work
[1] = biological target: T1, fat cell β receptor (β3A -adrenergic receptor) (Rattus norvegicus, UniProt P26255); test: Inhibition of BRL 37344-induced cAMP accumulation in transfected CHO cells; assay type: cell-based; conditions: read-out: inhibition of BRL 37344-induced cAMP accumulation
T1 construct: expressed in transfected cells
Text: Using a protocol for cotransfection of CHO cells (a 1.5 kb fragment was excised from pBluescript using Saci (present in the multiple cloning site of the vector) and BamHI and inserted into the Sac/BamH/sites of PSVL (Pharmacie). CHO-K1 cells were cotransfected with pSVL and pMSVneo (neomycin resistance plasmid) F. Z. Chung, C. D. Wang, P. C. Potter, J. C. Venter and C. M. Fraser, J. Biol. Chem. 263, 4052 (1988) using the CaPO4 precipitation technique. Stable transfectants were obtained by growth of the cells in culture medium containing Geneticin (500 μg/ml); colonies derived from single cells were isolated and expanded.

T1 sequence (P26255 whole entry): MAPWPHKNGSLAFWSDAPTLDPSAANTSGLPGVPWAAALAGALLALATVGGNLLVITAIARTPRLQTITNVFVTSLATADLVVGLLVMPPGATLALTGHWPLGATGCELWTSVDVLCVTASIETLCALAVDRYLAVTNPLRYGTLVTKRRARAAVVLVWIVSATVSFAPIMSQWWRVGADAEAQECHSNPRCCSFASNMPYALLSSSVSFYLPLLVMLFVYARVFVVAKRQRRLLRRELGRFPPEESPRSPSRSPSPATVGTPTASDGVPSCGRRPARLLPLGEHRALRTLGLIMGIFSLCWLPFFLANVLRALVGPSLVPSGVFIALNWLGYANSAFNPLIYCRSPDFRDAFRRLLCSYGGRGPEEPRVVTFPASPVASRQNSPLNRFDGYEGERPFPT

| SMILES | EC50 (brown adipocytes) [nM] | inhibition at 100 µM ([1]; CHO) [%] | also measured |
| --- | --- | --- | --- |
| CC(C)(C)NCC(O)COc1cccc2[nH]c(C#N)c([125I])c12 (centres unmarked) [[^125 1]-ICYP, [^125 1]-iodocyanopindolol] | – | – | Kd (β2 -adrenergic receptors): 0.03 nM; Kd (β3 -adrenergic receptor): 0.5 nM; Kd (β1 -adrenergic receptors): 0.011 nM |
| CC(Cc1ccc(OCC(=O)O)cc1)NCC(O)c1cccc(Cl)c1 (centres unmarked) [BRL 37344] | 1.7 | – | – |
| C=CCc1ccccc1OCC(O)CNC(C)C (centres unmarked) [alprenolol] | – | – | inhibition at 100 µM ([1]; antagonist at 10^-4 M, transfected CHO cells): 52% |
| CC(C)NCC(O)c1ccc(O)c(O)c1 (centres unmarked) [isoproterenol] | 8 | – | – |
| COCCc1ccc(OCC(O)CNC(C)C)cc1 (centres unmarked) [metoprolol] | – | 70 | – |
| CC(C)NCC(O)COc1ccc(CC(N)=O)cc1 (centres unmarked) [atenolol] | – | 30 | – |

Reference: patent US5418160A, “Cloned cell line expressing rat β3A adrenergic receptor” (The United States as represented by the Secretary of the …, priority 1991, dated 1995)
